How the values were obtained:
Assay type in all cases: cell-based, Escherichia coli
LY180(pTrc99A) = experiment: Furfural toxicity / MIC in tube cultures, vector control; settings: Escherichia coli, 48 h, read-out: MIC of furfural
Experimental: Furfural toxicity was measured in tube cultures (13 mm by 100 mm) containing 4 ml of AM1 medium with 50 g liter^−1 xylose, 12.5 mg liter^−1 ampicillin, furfural, and other supplements as indicated (Miller et al., 2009a, b). Cultures were inoculated to an initial density of 22 mg dcw liter^−1. IPTG (0.1 mM) was included for fucO induction. Cell mass was measured at 550 nm after incubation for 48 h (37° C.). For cysteine supplement experiment, the culture condition was the same but included 0.1 mM cysteine as an amendment.
Derivatives of LY180 containing these plasmids were tested for furfural tolerance with (0.1 mM IPTG) and without IPTG induction using an MIC assay (Miller et al., 2009a; Miller et al., 2010; Wang et al., 2011b).

E. coli W/pLOI4856 = experiment: pH-controlled batch fermentation (10% xylose); settings: 10 mM furfural
[1] = test system: XW137 (E. coli W ucpA::kan); experiment: pH-controlled batch fermentation (10% xylose)
E. coli W = experiment: pH-controlled batch fermentation (10% xylose)
XW118 (LY180 ucpA::kan) = experiment: pH-controlled batch fermentation (10% xylose)
Experimental: The effects of UcpA on growth, ethanol production, and furfural metabolism were investigated in more detail during pH-controlled batch fermentation in mineral salt medium (AM1 medium containing 100 g xylose liter^−1, 0.1 mM IPTG and 12.5 μg ml^−1 ampicillin for all cultures harboring plasmids; furfural as indicated; inoculum of 22 mg dcw liter^−1) as previously described (Wang et al., 2011b). Ethanol (retention time 1.1 min) and furfuryl alcohol (retention time 6.2 min) were measured using an Agilent 6890N gas chromatograph (Santa Clara, Calif.) (Miller et al., 2009b). Furoic acid (retention time of 51.2 min) and sugars were measured by high-performance liquid chromatography (Geddes et al., 2010a). Furfural was measured using a Beckman-Coulter DU 800 spectrophotometer (Martinez et al., 2000a).

LY180 (pLOI4856) = experiment: In vivo (whole cell) furfural reduction; settings: plasmid copies of ucpA; similar to the vector control
Experimental: In vivo furfural reduction was measured during incubation in AM1 medium containing 10 mM furfural and 50 g liter^−1 xylose. Cells were pre-incubated with chloramphenicol (40 mg liter^−1) for 1 h to arrest growth (0.88 mg dcw cells ml^−1), prior to the addition of furfural. Furfural concentration was measured as previously described using a Beckman spectrophotometer DU800 (Martinez et al., 2000b).

O=Cc1ccco1 [furfural]
MIC (LY180(pTrc99A)): 10 mM | Cell Yield (E. coli W/pLOI4856): 2.5 ± 0.3 g/L | Furfural-dependent slow growth Duration (E. coli W/pLOI4856): 16 ± 2 h | Furfural-dependent slow growth μ (E. coli W/pLOI4856): 0.07 ± 0.01 h⁻¹ | μ Max (E. coli W/pLOI4856): 0.18 ± 0.02 h⁻¹ | Cell Yield ([1]; 8 mM furfural): 1.9 ± 0.1 g/L | Furfural-dependent slow growth Duration ([1]; 8 mM furfural): 16 ± 3 h | Furfural-dependent slow growth μ ([1]; 8 mM furfural): 0.11 ± 0.02 h⁻¹ | Cell Yield ([1]; 10 mM furfural): 1.9 ± 0.1 g/L | Furfural-dependent slow growth Duration ([1]; 10 mM furfural): 37 ± 2 h | Furfural-dependent slow growth μ ([1]; 10 mM furfural): 0.02 ± 0.01 h⁻¹ | μ Max ([1]; 10 mM furfural): 0.12 ± 0.02 h⁻¹ | Cell Yield (E. coli W; 8 mM furfural): 1.9 ± 0.1 g/L | Furfural-dependent slow growth Duration (E. coli W; 8 mM furfural): 13 ± 1 h | Furfural-dependent slow growth μ (E. coli W; 8 mM furfural): 0.18 ± 0.01 h⁻¹ | μ Max (E. coli W; 8 mM furfural): 0.19 ± 0.01 h⁻¹ | Cell Yield (E. coli W; 10 mM furfural): 2.0 ± 0.1 g/L | Furfural-dependent slow growth Duration (E. coli W; 10 mM furfural): 21 ± 1 h | Furfural-dependent slow growth μ (E. coli W; 10 mM furfural): 0.06 ± 0.02 h⁻¹ | μ Max (E. coli W; 10 mM furfural): 0.20 ± 0.02 h⁻¹ | Cell Yield (XW118 (LY180 ucpA::kan); 8 mM furfural): 4.0 ± 0.1 g/L | Furfural-dependent slow growth Duration (XW118 (LY180 ucpA::kan); 8 mM furfural): 55 ± 2 h | Furfural-dependent slow growth μ (XW118 (LY180 ucpA::kan); 8 mM furfural): 0.01 ± 0.01 h⁻¹ | μ Max (XW118 (LY180 ucpA::kan); 8 mM furfural): 0.14 ± 0.01 h⁻¹ | Cell Yield (XW118 (LY180 ucpA::kan); 10 mM furfural): 0.04 ± 0.01 g/L | Furfural-dependent slow growth Duration (XW118 (LY180 ucpA::kan); 10 mM furfural): >72 h | Furfural-dependent slow growth μ (XW118 (LY180 ucpA::kan); 10 mM furfural): <0.04 h⁻¹ | μ Max (XW118 (LY180 ucpA::kan); 10 mM furfural): <0.04 h⁻¹ | Whole-cell specific activity (furfural reductase) (LY180 (pLOI4856)): < 0.10 U mg dcw^−1
